# From publication PMC6440567 (Clinical and Translational Science, 2018)
# Experiments:
# [1] = Final ceftazidime PopPK model; assay type: in vivo, human
# [2] = Individual predicted steady‐state exposures; assay type: in vivo, human; settings: for AUC / Cmax: human, plasma
# [3] = taken to be; ref not given; cited from earlier work
smiles,measurement,setting,value
"CC(C)(O/N=C(\C(=O)N[C@@H]1C(=O)N2C(C(=O)[O-])=C(C[n+]3ccccc3)CS[C@H]12)c1csc(N)n1)C(=O)O [Ceftazidime, ceftazidime]",lower V c,[1]; Asian compared with non‐Asian patients,27%
same,lower CL,[1]; Chinese patients vs non‐Asians,9%
same,"Slope 1: CrCL < 100 mL/min, slope1*CrCL",[1]; CrCL effect on CL,0.0103
same,lower V c,[1]; body weight at 10th percentile (50 kg) vs median weight (70 kg),24%
same,clearance,"[1]; human, plasma, intravenous, θ1: CL, typical value",116 mL/min
same,θ9: Population effect on V c (cUTI),[1]; in vivo,1.03
same,θ10: Population effect on V c (cIAI or NP),[1]; in vivo,1.14
same,θ13: WT effect on V c,[1]; in vivo,1.01
same,θ14: Population effect on V c (NPv),[1]; in vivo,0.297
same,lower CL,"[1]; non‐Chinese, non‐Japanese Asians vs non‐Asians",16%
same,higher V c,[1]; patients with NPv vs non‐NPv patients,29.7%
same,higher CL,[1]; patients with cIAI vs. healthy subjects and patients with cUTI,16%
same,θ2: V c,[1]; typical value,10.5 L
same,θ3: Q,[1]; typical value,31.5 L/h
same,θ4: V p,[1]; typical value,7.57 L
same,AUC,"[2]; AUCss,0–24 geometric mean (CV), Age (years) 18–65",800 µg·h/mL
same,AUC,"[2]; AUCss,0–24 geometric mean (CV), Age (years) > 65–75",997 µg·h/mL
same,AUC,"[2]; AUCss,0–24 geometric mean (CV), Age (years) > 75–89",1100 µg·h/mL
same,AUC,"[2]; AUCss,0–24 geometric mean (CV), Asian population: China (only)",892 µg·h/mL
same,AUC,"[2]; AUCss,0–24 geometric mean (CV), Asian population: Japan",1020 µg·h/mL
same,AUC,"[2]; AUCss,0–24 geometric mean (CV), Baseline WBC count Missing",924 µg·h/mL
same,AUC,"[2]; AUCss,0–24 geometric mean (CV), Concomitant use of OAT1/OAT3 inhibitor(s): No",869 µg·h/mL
same,AUC,"[2]; AUCss,0–24 geometric mean (CV), Concomitant use of OAT1/OAT3 inhibitor(s): Yes",934 µg·h/mL
same,AUC,"[2]; AUCss,0–24 geometric mean (CV), Fever at baseline: Missing",929 µg·h/mL
same,AUC,"[2]; AUCss,0–24 geometric mean (CV), Fever at baseline: No",888 µg·h/mL
same,AUC,"[2]; AUCss,0–24 geometric mean (CV), Fever at baseline: Yes",859 µg·h/mL
same,AUC,"[2]; AUCss,0–24 geometric mean (CV), Obesity I (29.9 ≤ BMI < 34.9 kg/m^2)",841 µg·h/mL
same,AUC,"[2]; AUCss,0–24 geometric mean (CV), Obesity II (34.9 ≤ BMI < 39.9 kg/m^2)",894 µg·h/mL
same,AUC,"[2]; AUCss,0–24 geometric mean (CV), Obesity III (BMI ≥ 39.9 kg/m^2)",806 µg·h/mL
same,AUC,"[2]; AUCss,0–24 geometric mean (CV), Obesity: Missing",959 µg·h/mL
same,AUC,"[2]; AUCss,0–24 geometric mean (CV), Obesity: Normal",878 µg·h/mL
same,AUC,"[2]; AUCss,0–24 geometric mean (CV), Race: Asian (non‐Chinese; non‐Japanese)",968 µg·h/mL
same,AUC,"[2]; AUCss,0–24 geometric mean (CV), Race: Chinese and Taiwanese",884 µg·h/mL
same,AUC,"[2]; AUCss,0–24 geometric mean (CV), Race: Japanese",1020 µg·h/mL
same,AUC,"[2]; AUCss,0–24 geometric mean (CV), Race: White/other",848 µg·h/mL
same,Cmax,"[2]; C max,ss geometric mean (CV), Age (years) 18–65",70 µg/mL
same,Cmax,"[2]; C max,ss geometric mean (CV), Age (years) > 65–75",77.1 µg/mL
same,Cmax,"[2]; C max,ss geometric mean (CV), Age (years) > 75–89",76.8 µg/mL
same,Cmax,"[2]; C max,ss geometric mean (CV), Asian population: China (only)",78.4 µg/mL
same,Cmax,"[2]; C max,ss geometric mean (CV), Asian population: Japan",90.4 µg/mL
same,Cmax,"[2]; C max,ss geometric mean (CV), Asian population: Korea",79.9 µg/mL
same,Cmax,"[2]; C max,ss geometric mean (CV), Concomitant use of OAT1/OAT3 inhibitor(s): No",71.7 µg/mL
same,Cmax,"[2]; C max,ss geometric mean (CV), Concomitant use of OAT1/OAT3 inhibitor(s): Yes",78.5 µg/mL
same,Cmax,"[2]; C max,ss geometric mean (CV), Fever at baseline: Missing",75.1 µg/mL
same,Cmax,"[2]; C max,ss geometric mean (CV), Fever at baseline: No",71.9 µg/mL
same,Cmax,"[2]; C max,ss geometric mean (CV), Fever at baseline: Yes",72.1 µg/mL
same,Cmax,"[2]; C max,ss geometric mean (CV), Obesity I (29.9 ≤ BMI < 34.9 kg/m^2)",67.9 µg/mL
same,Cmax,"[2]; C max,ss geometric mean (CV), Obesity II (34.9 ≤ BMI < 39.9 kg/m^2)",73.7 µg/mL
same,Cmax,"[2]; C max,ss geometric mean (CV), Obesity III (BMI ≥ 39.9 kg/m^2)",64.2 µg/mL
same,Cmax,"[2]; C max,ss geometric mean (CV), Obesity: Missing",70.9 µg/mL
same,Cmax,"[2]; C max,ss geometric mean (CV), Obesity: Normal",73 µg/mL
same,Cmax,"[2]; C max,ss geometric mean (CV), Race: Asian (non‐Chinese; non‐Japanese)",82.2 µg/mL
same,Cmax,"[2]; C max,ss geometric mean (CV), Race: Chinese and Taiwanese",77.6 µg/mL
same,Cmax,"[2]; C max,ss geometric mean (CV), Race: Japanese",90.4 µg/mL
same,Cmax,"[2]; C max,ss geometric mean (CV), Race: White/other",68.6 µg/mL
same,AUC,[2]; intravenous,748 µg·h/mL
same,Cmax,[2]; intravenous,67 µg/mL
same,AUC,"[2]; intravenous, 187.5 mg, AUCss,0–24 geometric mean (CV), Day 3 CrCL 8–15 mL/min (750‐187.5 mg q24 h)",551 µg·h/mL
same,Cmax,"[2]; intravenous, 187.5 mg, C max,ss geometric mean (CV), Day 3 CrCL 8–15 mL/min (750‐187.5 mg q24 h)",34.3 µg/mL
same,AUC,"[2]; intravenous, 500 mg, AUCss,0–24 geometric mean (CV), Day 3 CrCL > 150–180 mL/min (2000‐500 mg q8 h)",652 µg·h/mL
same,Cmax,"[2]; intravenous, 500 mg, C max,ss geometric mean (CV), Day 3 CrCL > 150–180 mL/min (2000‐500 mg q8 h)",58.5 µg/mL
same,AUC,"[2]; intravenous, AUCss,0–24 geometric mean (CV), Asian population: Korea",952 µg·h/mL
same,AUC,"[2]; intravenous, AUCss,0–24 geometric mean (CV), Asian population: Taiwan",728 µg·h/mL
same,AUC,"[2]; intravenous, AUCss,0–24 geometric mean (CV), Asian population: Vietnam",852 µg·h/mL
same,AUC,"[2]; intravenous, AUCss,0–24 geometric mean (CV), Bacteremia at baseline: No",881 µg·h/mL
same,AUC,"[2]; intravenous, AUCss,0–24 geometric mean (CV), Bacteremia at baseline: Yes",919 µg·h/mL
same,AUC,"[2]; intravenous, AUCss,0–24 geometric mean (CV), Baseline APACHE II score > 10",938 µg·h/mL
same,AUC,"[2]; intravenous, AUCss,0–24 geometric mean (CV), Baseline APACHE II score Missing",979 µg·h/mL
same,AUC,"[2]; intravenous, AUCss,0–24 geometric mean (CV), Baseline WBC count (cells/μL) > 12,000",801 µg·h/mL
same,AUC,"[2]; intravenous, AUCss,0–24 geometric mean (CV), Baseline WBC count (cells/μL) ≤ 12,000",923 µg·h/mL
same,AUC,"[2]; intravenous, AUCss,0–24 geometric mean (CV), Patient population: NP",950 µg·h/mL
same,AUC,"[2]; intravenous, AUCss,0–24 geometric mean (CV), Patient population: Non‐VAP",1020 µg·h/mL
same,AUC,"[2]; intravenous, AUCss,0–24 geometric mean (CV), Patient population: VAP",830 µg·h/mL
same,AUC,"[2]; intravenous, AUCss,0–24 geometric mean (CV), Patient population: cIAI",749 µg·h/mL
same,AUC,"[2]; intravenous, AUCss,0–24 geometric mean (CV), Patient population: cUTI",979 µg·h/mL
same,AUC,"[2]; intravenous, AUCss,0–24 geometric mean (CV), SIRS at baseline: Missing",977 µg·h/mL
same,AUC,"[2]; intravenous, AUCss,0–24 geometric mean (CV), SIRS at baseline: No",895 µg·h/mL
same,AUC,"[2]; intravenous, AUCss,0–24 geometric mean (CV), SIRS at baseline: Yes",869 µg·h/mL
same,Cmax,"[2]; intravenous, C max,ss geometric mean (CV), Asian population: Taiwan",59.4 µg/mL
same,Cmax,"[2]; intravenous, C max,ss geometric mean (CV), Asian population: Vietnam",78.6 µg/mL
same,Cmax,"[2]; intravenous, C max,ss geometric mean (CV), Bacteremia at baseline: No",71.9 µg/mL
same,Cmax,"[2]; intravenous, C max,ss geometric mean (CV), Bacteremia at baseline: Yes",73.6 µg/mL
same,Cmax,"[2]; intravenous, C max,ss geometric mean (CV), Baseline APACHE II score > 10",72.3 µg/mL
same,Cmax,"[2]; intravenous, C max,ss geometric mean (CV), Baseline APACHE II score Missing",77.9 µg/mL
same,Cmax,"[2]; intravenous, C max,ss geometric mean (CV), Baseline WBC count (cells/μL) > 12,000",67.6 µg/mL
same,Cmax,"[2]; intravenous, C max,ss geometric mean (CV), Baseline WBC count (cells/μL) ≤ 12,000",74.6 µg/mL
same,Cmax,"[2]; intravenous, C max,ss geometric mean (CV), Patient population: NP",72.9 µg/mL
same,Cmax,"[2]; intravenous, C max,ss geometric mean (CV), Patient population: Non‐VAP",79 µg/mL
same,Cmax,"[2]; intravenous, C max,ss geometric mean (CV), Patient population: VAP",61.9 µg/mL
same,Cmax,"[2]; intravenous, C max,ss geometric mean (CV), Patient population: cIAI",66.9 µg/mL
same,Cmax,"[2]; intravenous, C max,ss geometric mean (CV), Patient population: cUTI",77.9 µg/mL
same,Cmax,"[2]; intravenous, C max,ss geometric mean (CV), SIRS at baseline: Missing",83.5 µg/mL
same,Cmax,"[2]; intravenous, C max,ss geometric mean (CV), SIRS at baseline: No",72.3 µg/mL
same,Cmax,"[2]; intravenous, C max,ss geometric mean (CV), SIRS at baseline: Yes",71.5 µg/mL
same,difference in steady‐state exposure vs. healthy volunteers,[2]; most patient subgroups,≤ 20%
same,"lower C max,ss",[2]; patients with VAP vs non‐VAP patients,~ 20%
same,free plasma concentrations as % of total plasma concentrations,[3],85%
